Measurements from patent US20230103549A1, “OVERLAPPING THERAPEUTIC STRATEGIES FOR CYSTINOSIS TREATMENT AND COSMETIC SKIN DARKENING” (Whitehead Institute for Biomedical Research, priority 2019, published 2023).

Key:
[1] = molecular target: T1, MFSD12 (Homo sapiens, UniProt Q6NUT3); assay: Cysteine uptake assay into isolated lysosomes; assay type: biochemical; settings: 500 μM unlabeled cysteine; lysosomes from HEK-293T cells; 15-minute transport assay
T1 construct: isolate large quantities of lysosomes from wild-type and MFSD12 knock-out HEK-293T cells; endogenous in cells; host or cells: suspension-adapted HEK-293T cells; lysosomes purified by differential and OptiPrep gradient centrifugation
Experimental: Lysosomal purification protocols were adapted from previous protocols (Graham, 2001). 500 million suspension-adapted HEK-293T cells were spun down, washed in ice-cold PBS, and resuspended in 15 mL homogenization buffer (250 mM sucrose; 20 mM HEPES, pH 7.4; 1 mM EDTA) supplemented with protease inhibitor tablets (Roche). Cells were dounced 10 times in a lose fitting glass dounce and the resulting lysate was centrifuged at 1,500×g for 10 minutes at 4° C. After transferring the supernatant, 15 mL homogenization buffer was used to resuspend the pellet, and douncing and centrifugation were repeated. Supernatants from three successive rounds of homogenization and centrifugation were pooled and centrifuged a final time before transferring ‘post-nuclear supernatant’ to the subsequent step. ‘Post-nuclear supernatant’ was centrifuged at 20,000×g for 10 minutes at 4° C. to pellet organelles. To further wash organelles, the pellet was resuspended in 45 mL homogenization buffer and spun again at 20,000×g for 10 minutes at 4° C. The resulting pellet or ‘light mitochondrial fraction’ was resuspended in 9% OptiPrep (Thermo Fisher) prepared in Dilution Buffer (250 mM sucrose; 40 mM HEPES, pH 7.4; 2 mM EDTA) and overlaid on top of a discontinuous gradient of 18, 16, 14, 12, and 10% OptiPrep prepared in Dilution Buffer. […]

[2] = molecular target: T2, plasma membrane-localized MFSD12 (Homo sapiens, UniProt Q6NUT3, DEL167-169/L256A/L257A/Y182H); assay: Plasma membrane cellular cysteine uptake assay (MFSD12^PM); assay type: cell-based; settings: HEK-293T cells expressing MFSD12^PM; 500 μM cold cysteine for competition
T2 construct: expressed in transfected cells; host or cells: HEK-293T cells transiently transfected with the pRK5-HA-MFSD12 LL253-254AA plasmid (PEI)
Experimental: 3 million HEK-293T cells were plated in 10 cm dishes. Cells were transfected with 3 μg of plasmid with PEI (3 μg per 1 μg plasmid) and scraped 48 hours post-transfection into ice cold KPBS. After washing twice, cells were resuspended in LysoBuffer supplemented with 2.5 μM Erastin (MilliporeSigma), 4 mM leucine, and 3 mM serine. Assays were started with the addition of cold cysteine (10 μM for transport conditions and 500 μM for competition) and 50 μCi/mL (<100 pM) [^35S]-cysteine. Samples were incubated at 30° C. and aliquots were taken at indicated time points. Aliquoted cells were harvested by centrifugation at 1,000×g for 30 seconds at 4° C. and washed twice in ice-cold PBS. Cell pellets were resuspended in water before mixing into scintillation fluid and measuring scintillation counts (TriCarb T9000TR, Perkin-Elmer).

T2 sequence (Q6NUT3 with tags, fused parts or gaps DEL167-169/Y182H/L256A/L257A): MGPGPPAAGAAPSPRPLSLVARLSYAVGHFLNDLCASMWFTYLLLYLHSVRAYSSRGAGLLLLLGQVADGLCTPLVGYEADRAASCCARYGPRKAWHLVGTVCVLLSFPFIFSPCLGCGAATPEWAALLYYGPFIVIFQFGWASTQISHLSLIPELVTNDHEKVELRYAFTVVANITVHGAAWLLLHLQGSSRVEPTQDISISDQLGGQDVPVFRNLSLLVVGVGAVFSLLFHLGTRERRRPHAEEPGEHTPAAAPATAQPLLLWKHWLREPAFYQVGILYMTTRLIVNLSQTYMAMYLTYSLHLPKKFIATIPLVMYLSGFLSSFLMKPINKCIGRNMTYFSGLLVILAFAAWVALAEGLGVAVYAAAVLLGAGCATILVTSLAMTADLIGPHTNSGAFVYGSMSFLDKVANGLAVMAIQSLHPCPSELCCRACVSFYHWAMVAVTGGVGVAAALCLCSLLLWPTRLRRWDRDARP
T1 sequence (Q6NUT3 whole entry): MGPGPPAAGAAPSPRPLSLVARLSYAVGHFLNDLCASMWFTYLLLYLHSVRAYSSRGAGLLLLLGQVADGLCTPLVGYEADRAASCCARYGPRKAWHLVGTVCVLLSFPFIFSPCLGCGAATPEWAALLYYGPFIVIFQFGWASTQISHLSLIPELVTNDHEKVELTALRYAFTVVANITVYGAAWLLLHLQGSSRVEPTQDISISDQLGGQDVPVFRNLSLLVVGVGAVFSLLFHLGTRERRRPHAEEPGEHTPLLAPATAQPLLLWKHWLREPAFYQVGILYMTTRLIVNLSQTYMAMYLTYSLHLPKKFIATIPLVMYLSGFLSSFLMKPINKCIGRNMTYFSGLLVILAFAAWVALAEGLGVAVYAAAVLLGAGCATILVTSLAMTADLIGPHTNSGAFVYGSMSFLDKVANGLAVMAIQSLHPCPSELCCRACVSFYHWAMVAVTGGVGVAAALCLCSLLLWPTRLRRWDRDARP

N[C@@H](CS)C(=O)O [cysteine]
competition of [35S]-cysteine signal in lysosomes [1]: reduce the [^35S] signal in lysosomes having MFSD12 to the same level as those in lysosomes lacking it | competition of MFSD12-induced [35S]-cysteine transport [2]: completely competed
